Test results taken from the NIST ThermoML archive (doi:10.1021/je200903m).

Conditions: Liquid, isochoric method

CCn1cc[n+](C)c1.O=S(=O)([O-])C(F)(F)F [1-ethyl-3-methylimidazolium trifluoromethanesulfonate]
Conditions | mass density [kg/m3]
264.14 K, 39698 kPa | 1434.17
264.21 K, 29714 kPa | 1429.2
264.31 K, 10134 kPa | 1419.79
265.07 K, 1265.2 kPa | 1414.41
271.03 K, 50162 kPa | 1433.46
271.03 K, 50199 kPa | 1433.45
271.04 K, 9677.3 kPa | 1413.82
271.04 K, 11097 kPa | 1414.79
271.04 K, 19702 kPa | 1419.12
271.04 K, 29909 kPa | 1424.08
271.04 K, 30156 kPa | 1424.07
271.04 K, 40035 kPa | 1428.5
271.04 K, 40309 kPa | 1428.49
271.04 K, 60071 kPa | 1437.92
271.05 K, 20286 kPa | 1419.1
271.4 K, 1190.5 kPa | 1408.62
272.28 K, 2655.9 kPa | 1408.53
277.45 K, 49840 kPa | 1427.83
277.68 K, 39776 kPa | 1423.39
277.8 K, 30125 kPa | 1418.42
277.84 K, 10946 kPa | 1407.96
277.84 K, 19967 kPa | 1413.12
284.58 K, 20183 kPa | 1407.3
284.65 K, 40227 kPa | 1417.71
284.69 K, 60421 kPa | 1427.09
284.73 K, 50105 kPa | 1422.67
284.93 K, 30204 kPa | 1412.4
285.1 K, 728.1 kPa | 1397.61
291.42 K, 29930 kPa | 1406.61
291.49 K, 49838 kPa | 1417.02
291.92 K, 10046 kPa | 1396.94
291.92 K, 41361 kPa | 1412.67
291.94 K, 40088 kPa | 1411.69
292.62 K, 61503 kPa | 1421.86
298.19 K, 124.2 kPa | 1386.18
298.19 K, 39944 kPa | 1405.91
299.14 K, 60111 kPa | 1416.26
299.19 K, 50157 kPa | 1410.96
299.54 K, 20406 kPa | 1396.18
300.18 K, 1687.5 kPa | 1385.35
305.75 K, 49851 kPa | 1405.17
306.58 K, 60078 kPa | 1410.23
306.75 K, 10122 kPa | 1384.72
306.76 K, 29599 kPa | 1395.48
313.35 K, 59888 kPa | 1404.41
314.04 K, 19458 kPa | 1384.01
314.64 K, 40402 kPa | 1394.69
315.41 K, 1377.5 kPa | 1372.29
322.27 K, 50268 kPa | 1393.94
322.29 K, 30090 kPa | 1383.21
322.3 K, 9799.1 kPa | 1371.63
329.98 K, 59857 kPa | 1393.19
330.68 K, 40501 kPa | 1382.4
331.49 K, 1256.6 kPa | 1358.62
332.56 K, 22229 kPa | 1370.66
338.11 K, 9067.3 kPa | 1358
338.47 K, 50063 kPa | 1381.64
339.28 K, 30155 kPa | 1370.02
346.74 K, 59641 kPa | 1380.85
347.76 K, 20122 kPa | 1357.09
347.76 K, 40116 kPa | 1369.21

CCCCCCn1cc[n+](C)c1.O=S(=O)([O-])C(F)(F)F [1-hexyl-3-methylimidazolium trifluoromethanesulfonate]
Conditions | mass density [kg/m3]
303.14 K, 103.8 kPa | 1234.94
303.15 K, 8671.3 kPa | 1241.37
303.15 K, 9948.5 kPa | 1242.12
303.15 K, 10145 kPa | 1241.33
303.15 K, 18778 kPa | 1246.84
303.15 K, 29540 kPa | 1252.92
303.15 K, 50077 kPa | 1263.74
303.15 K, 50213 kPa | 1263.74
303.16 K, 19876 kPa | 1246.81
303.16 K, 30131 kPa | 1252.9
303.16 K, 40525 kPa | 1258.84
303.16 K, 40749 kPa | 1258.84
303.93 K, 1169.5 kPa | 1236.1
311.1 K, 19363 kPa | 1240.66
311.1 K, 50109 kPa | 1258.15
311.4 K, 59971 kPa | 1263.03
311.64 K, 29371 kPa | 1246.09
312.12 K, 10064 kPa | 1235.43
312.13 K, 19984 kPa | 1241.37
312.35 K, 40711 kPa | 1252.12
312.67 K, 1137.8 kPa | 1229.31
320.01 K, 60231 kPa | 1257.4
320.69 K, 29908 kPa | 1239.86
321.26 K, 40148 kPa | 1245.28
321.32 K, 10225 kPa | 1228.6
321.34 K, 19896 kPa | 1234.67
321.7 K, 51336 kPa | 1251.33
322.86 K, 1202 kPa | 1221.53
330.07 K, 40113 kPa | 1239.07
330.33 K, 60665 kPa | 1250.61
330.45 K, 29706 kPa | 1233.91
330.66 K, 50504 kPa | 1244.49
331.61 K, 20974 kPa | 1227.76
331.62 K, 10028 kPa | 1220.82
332.5 K, 1153.4 kPa | 1214.09
339.16 K, 49816 kPa | 1238.32
339.45 K, 59226 kPa | 1243.78
340.07 K, 39808 kPa | 1233.11
340.31 K, 30074 kPa | 1227.04
341.51 K, 9933.5 kPa | 1213.37
341.52 K, 20038 kPa | 1220.02
342.34 K, 977.2 kPa | 1206.6
348.25 K, 58008 kPa | 1237.59
349.94 K, 49966 kPa | 1232.3
350.06 K, 39798 kPa | 1226.25
351.54 K, 29910 kPa | 1219.2
351.77 K, 10055 kPa | 1205.85
351.77 K, 19878 kPa | 1212.55

CCn1cc[n+](C)c1.F[B-](F)(F)F [1-ethyl-3-methylimidazolium tetrafluoroborate]
Conditions | mass density [kg/m3]
284.73 K, 40082 kPa | 1309.71
284.74 K, 29331 kPa | 1305.75
285.12 K, 9993.5 kPa | 1296.4
285.2 K, 19389 kPa | 1300.88
285.8 K, 1326.9 kPa | 1292.98
290.95 K, 50018 kPa | 1309.1
291.3 K, 39987 kPa | 1305.11
291.58 K, 20094 kPa | 1295.79
291.59 K, 10267 kPa | 1292.43
292 K, 30197 kPa | 1300.22
292.03 K, 1055.4 kPa | 1288.31
298.14 K, 10219 kPa | 1287.74
298.14 K, 19834 kPa | 1291.82
298.15 K, 20203 kPa | 1291.81
298.15 K, 29284 kPa | 1295.18
298.15 K, 39774 kPa | 1299.63
298.15 K, 39935 kPa | 1299.63
298.15 K, 50710 kPa | 1304.44
298.15 K, 61191 kPa | 1308.4
298.16 K, 30299 kPa | 1295.16
298.63 K, 1139.7 kPa | 1283.3
304.09 K, 59595 kPa | 1303.87
304.39 K, 39527 kPa | 1294.57
304.61 K, 49734 kPa | 1299.01
304.62 K, 29983 kPa | 1291.2
304.69 K, 10037 kPa | 1282.74
304.69 K, 19721 kPa | 1287.13
305.23 K, 1194.1 kPa | 1278.54
311.4 K, 39938 kPa | 1290.56
311.49 K, 30054 kPa | 1286.49
311.51 K, 60021 kPa | 1298.35
311.55 K, 19542 kPa | 1282.12
311.56 K, 10293 kPa | 1277.95
311.72 K, 50382 kPa | 1293.87
312.05 K, 1111.5 kPa | 1273.28
318.36 K, 19918 kPa | 1277.33
318.37 K, 9976 kPa | 1272.71
318.37 K, 50094 kPa | 1289.9
318.4 K, 39958 kPa | 1285.84
318.49 K, 30004 kPa | 1281.46
318.57 K, 60242 kPa | 1293.23
319.24 K, 1155.6 kPa | 1268
325.39 K, 60094 kPa | 1289.24
325.5 K, 50050 kPa | 1285.18
325.59 K, 30106 kPa | 1276.66
325.59 K, 39966 kPa | 1280.8
325.65 K, 9902.1 kPa | 1267.42
325.66 K, 18720 kPa | 1272.06
326.26 K, 1166.5 kPa | 1262.28
332.57 K, 59788 kPa | 1284.52
332.79 K, 39915 kPa | 1275.99
332.85 K, 50074 kPa | 1280.13
332.87 K, 29859 kPa | 1271.38
332.99 K, 10159 kPa | 1261.67
333.07 K, 19960 kPa | 1266.75
333.62 K, 1252.9 kPa | 1257.28
340.28 K, 59745 kPa | 1279.45
340.35 K, 9969.2 kPa | 1256.69
340.37 K, 19698 kPa | 1261.02
340.39 K, 50227 kPa | 1275.3
340.42 K, 39835 kPa | 1270.69
340.55 K, 29899 kPa | 1266.08
341.04 K, 1357.1 kPa | 1251.73
347.77 K, 59854 kPa | 1274.63
347.97 K, 10024 kPa | 1251.12
348.02 K, 29830 kPa | 1260.33
348.04 K, 19820 kPa | 1256
348.15 K, 49790 kPa | 1269.99
348.24 K, 39938 kPa | 1265.38
355.85 K, 20035 kPa | 1250.42
355.86 K, 29675 kPa | 1255.31
356.01 K, 40147 kPa | 1259.61
356.02 K, 49918 kPa | 1264.68
356.4 K, 59860 kPa | 1269.25
